Source: publication PMC10536132, “Arginine Gemini-Based Surfactants for Antimicrobial and Antibiofilm Applications: Molecular Interactions, Skin-Related Anti-Enzymatic Activity and Cytotoxicity” (Molecules, 2023)
Marks after values point to notes of the source that are not given here.

What was measured:
[1] = Apparent pKa by direct titration with NaOH; type: physicochemical; settings: aqueous solution, concentration above the minimum aggregation concentration; pH at semi-equivalence point
Experimental: In order to determine the ionization state of these gemini surfactants at the pH used to investigate their biological properties, the apparent acid pKa was determined for each of them. The pKap value has been determined by means of a direct titration with NaOH of an aqueous solution of each compound. The surfactant concentrations used were in all cases higher than the minimum aggregation concentration, thus avoiding possible deviations in the pK value due to the monomer–aggregate balance. The pKap values can be estimated from the pH at the semi-equivalence point that is reached when the molar ratio of protonated and non-protonated species is 1:1. In these conditions, we have that the pH = pKa.
The pKa value of each compound has been determined by means of a direct titration with NaOH of an aqueous solution of each compound. The pH was measured using the pH electrode Thermo Electron Corporation ORION 8103SC and the temperature was controlled by a thermostatic bath, Heto CBN 8-30. The pKa values can be estimated from the pH at the semi-equivalence point, which contains a 1:1 molar ratio of protonated and non-protonated species; at this point, pH = pKap.

[2] = biological target: porcine pancreatic elastase (Sus scrofa, UniProt P00772); experiment: Elastase inhibitory assay; type: biochemical; settings: 40 µL of 1000 µg/mL stock; EGCG 250 μM
Experimental: The elastase inhibition was tested according to the method described by […] et al.. First, a stock solution of each surfactant at 1000 μg/mL was prepared in sterile ultrapure water. A stock solution of porcine pancreatic elastase at 3.33 mg/mL in sterile ultrapure water was also prepared. The substrate […] (Ala) 3-p-nitroanilide was dissolved in 0.2 mM Tris-HCl buffer solution (pH 8.0). The samples (40 μL) were then diluted and incubated together with the enzyme for 15 min prior to the substrate addition. Negative control was sterile ultrapure water, while EGCG (250 μM or 0.114 mg/mL) was used as the positive control. The absorbance at λ = 410 nm was measured immediately after the substrate addition and continuously during the next 2 h using an Elx800 Microplate Reader (Biotek®). […] The anti-elastase activity (in %), determined in triplicate, was calculated according to the following equation:(2) Elastase inhibitory activity %=A1-A2/A1×100 where A1 and A2 represent the absorbance in the absence and presence of the testing samples, respectively.

[3] = test system: bovine hyaluronidase; experiment: Hyaluronidase inhibitory activity; type: biochemical; settings: negative inhibition values
Experimental: The hyaluronidase inhibitory activity was performed according to the method used by Altinyay et al. with some modifications. Briefly, a work solution containing bovine hyaluronidase (7900 units/mL) in 0.1 M acetate buffer (pH 3.6) was prepared. Fifty microliters of the work solution were mixed 1:1 with the surfactants’ solution in 5% DMSO. For the negative control, 50 μL of 5% DMSO was used, while EGCG was used as positive control. After 20 min of incubation at 37 °C, 50 μL of calcium chloride (12.5 mM) was added to the mixture and again incubated for 20 min at 37 °C. At that point, 250 μL sodium hyaluronate (1.2 mg/mL) was added and incubated for 40 min at 37 °C. After incubation, the mixture was treated with 50 μL of 0.4 M NaOH and 100 μL of 0.2 M sodium borate and then incubated for 3 min in a boiling water bath. After cooling to room temperature, 1.4 mL of p-dimethylaminobenzaldehyde solution was added to the reaction mixture, being further incubated at 37 °C for 20 min. The resulting colored solution was measured at λ = 585 nm (PerkinElmer-Lambda 35, Brazil). The hyaluronidase inhibitory activity of each sample was calculated according to the following formula:(3) Hyaluronidase inhibitory activity %=A1−A2/A1×100 where A1 and A2 represent the absorbance in the absence and presence of the testing sample, respectively.

[4] = Cell viability, NRU assay; type: cell-based, human; settings: human, HaCaT cells (immortal human keratinocytes); NRU, HaCaT, surfactant in solution at 35.6 µg/mL, 24 h; read-out: cellular viability
Experimental: (§1) The immortal human keratinocyte (HaCaT) and the squamous cell carcinoma (A431) were obtained from Celltec, University of Barcelona. The cells were grown in DMEM medium (4.5 g/L glucose) supplemented with 10% (v/v) FBS, 2 mM L-glutamine, 100 U/mL of penicillin and 100 μg/mL of streptomycin at 37 °C under 5% CO2. Cells were routinely cultured in 75 cm^2 culture flasks and were trypsinized using trypsin-EDTA when reached approximately 80% of confluence.
(§2) HaCaT cells (1 × 10^5 cells/mL) and A431 cells (5 × 10^4 cells/mL) were grown at the defined densities into the central 60 wells of a 96-well microplate. Cells were incubated for 24 h under 5% CO2 at 37 °C. The medium was then removed and the cells were incubated with the surfactants (100 μL), previously diluted 1:1 (v/v), reaching a concentration of […] in DMEM medium supplemented with 5% FBS using two different colorimetric methods for quantification, as follows.
(§3) The accumulation of the neutral red dye in the lysosomes of viable, undamaged cells constitutes the basis of the neutral red uptake (NRU) assay. After the cells were incubated for 24 h with the corresponding systems at 35.6 µg/mL, the medium was removed and the surfactants´ solutions were incubated for 3 h with the NRU dye solution (50 μg/mL) dissolved in the medium without FBS and phenol red (Lonza). Cells were then washed with sterile PBS, followed by the addition of 100 μL of a solution containing 50% ethanol absolute and 1% acetic acid in distilled water to extract the non-adhered dye. The microplates were then stirred for 5 min at 25 °C to promote the dissolution. Finally, the absorbance of the resulting solutions was measured at λ = 550 nm using a Bio-Rad 550 microplate reader (Hercules, CA, USA).

[5] = test system: squamous cell carcinoma (A431); experiment: Cell viability, NRU assay; type: cell-based; settings: A431, surfactant in solution at 35.6 µg/mL, 24 h
Experimental: as §1, §2, §3

[6] = set-up: method as in doi:10.1021/la981295l; settings: cited from earlier work
[7] = set-up: method as in doi:10.1021/la981295l; settings: cited from earlier work; remark: listed apart in the source
[8] = set-up: method as in doi:10.1021/la981295l; settings: cited from earlier work; remark: listed apart in the source
[9] = test system: Gram-positive and Gram-negative bacteria; experiment: Minimum inhibitory concentration (MIC), broth microdilution; type: cell-based; settings: planktonic bacteria, 24 h at 37 °C, values only in Figure 2
Description: The Gram-positive bacteria tested include some problematic microorganisms such us L. monocytogenes; these bacteria cause listeriosis, a serious disease that has grown considerably in industrialized countries due to the increased ratio of immunosuppressed persons and the extensive use of refrigerated food. We have also tested the effectivity of these surfactants against methicillin-resistant Staphylococcus aureus (MRSA), which is known as a major cause of hospital-acquired infections and, at this time, is a remarkable public health problem. […] For comparison, this figure also includes the MIC values of a LAM (lauroyl arginine methyl ester) surfactant that can be considered the single-stranded homologue of these geminis and the BAC (benzalkonium ammonium chloride), a quaternary ammonium surfactant widely used as antiseptic.
Antimicrobial tests were carried out against the following microorganisms: Bacillus subtilis ATCC 6633, Staphylococcus epidermidis ATCC 12228, Staphylococcus aureus ATCC 29213, Listeria monocytogenes ATCC 15313, Enterococcus faecalis ATCC 29212, Escherichia coli ATCC 25922, Acinetobacter baumannii ATCC 19606, Klebsiella aerogenes ATCC 13048, methicillin-resistant Staphylococcus aureus ATCC 43300 and Pseudomonas aeruginosa PAO1. […] The growth of the microorganisms was determined visually after incubation for 24 h at 37 °C. […]

[10] = test system: Pseudomonas aeruginosa PAO1 biofilm; experiment: Biofilm inhibition, crystal violet; type: cell-based; settings: P. aeruginosa PAO1, 24 h contact, 2–128 μg/mL tested
Experimental: (§4) The ability of MRSA and P. aeruginosa to form biofilms on propylene surfaces in the presence of bis-Args was determined. The two bacterial cells were kept in contact with the gemini surfactants at different concentrations from 2 to 128 μg/mL for 24 h. Then, the percentage of biofilm inhibition was determined.
(§5) Antibiofilm activity was assessed against biofilm-producing strains of methicillin-resistant Staphylococcus aureus (MRSA) ATCC 43300 and Pseudomonas aeruginosa PAO1. Biofilm inhibition and eradication capacities of the gemini surfactants were evaluated against adherent bacterial biofilms grown in 96-well microtiter plates. Bacteria were grown overnight in tryptic soy agar at 37 °C for 24 h. The bacteria were suspended in lysogeny broth with glucose (1%) at 1.5 × 10^8 CFU/mL.
(§6) Biofilm inhibition procedure: 100 μL of the gemini surfactant at different concentration values was added to each well in a 96-well microplate, then, 100 μL of the diluted bacterial suspension was added to the wells. Two-fold serial dilutions of the gemini surfactants to be tested were used (2–128 μg/mL). Microtiter plates were incubated at 37 °C for 24 h. Spent growth media was then discarded and biofilm was fixed with 150 μL methanol for 10 min. After the plates were air dried, the biofilms were stained with 50 μL of 0.1 of % crystal violet for 25 min. The plates were rinsed with water and then 150 μL of 96% ethanol containing 10% acetic acid was added to all 96-well plates to dissolve the remaining crystal violet-stained biofilm. The absorbance value was recorded at 570 nm. Each assay was performed at least three times and the results were averaged.

[11] = test system: methicillin-resistant Staphylococcus aureus (MRSA) ATCC 43300 biofilm; experiment: Biofilm inhibition, crystal violet; type: cell-based; settings: 24 h contact, 2–128 μg/mL tested
Experimental: as §4, §5, §6

[12] = test system: Pseudomonas aeruginosa PAO1 biofilm; experiment: Biofilm eradication, crystal violet; type: cell-based; settings: P. aeruginosa PAO1, at 32 μg/mL
Experimental: (§7) The ability of these geminis to disperse and eradicate biofilms once formed on the propylene surfaces of the microtiter plates was evaluated using the same bacterial strains. […] The susceptibility of both biofilms against the tested surfactants was similar. At a low concentration of 32 μg/mL, C3(CA)2 and C3(LA)2 were able to eradicate around 60–70% of preformed biofilm; however, at this concentration, the […] hydrophobic compound, C3(OA)2, eradicated less than 30% of biofilm. At high concentrations, the eradication percentage is similar for all alkyl chains. […] In this case, at low concentrations, there is not a clear dependence between the antibiofilm properties and the spacer; however, at a high concentration, the best effectivity was obtained for the longer spacer chains.
as §5
(§8) Biofilm eradication procedure: For mature biofilm formation, 200 μL of the diluted bacterial suspension was added to each well in a 96-well microplate and incubated at 37 °C for 24 h. The wells were gently rinsed with phosphate-buffered saline (PBS) and 200 μL of the corresponding gemini surfactant solution was added to each well and incubated again at 37 °C for 24 h. Two-fold serial dilutions of the gemini surfactant were used (4–128 μg/mL). After the plates were air dried, the biofilms were stained with 50 μL of 0.1 of % crystal violet for 25 min. The plates were rinsed with water and then 150 μL of 96% ethanol containing 10% acetic acid was added to all 96-well plates to dissolve the remaining crystal violet-stained biofilm. The absorbance value was recorded at 570 nm. Each assay was conducted at least three times and the results were averaged.

[13] = test system: methicillin-resistant Staphylococcus aureus (MRSA) ATCC 43300 biofilm; experiment: Biofilm eradication, crystal violet; type: cell-based; settings: at 32 μg/mL
Experimental: as §7, §5, §8

Chain of porcine pancreatic elastase (P00772 27-266): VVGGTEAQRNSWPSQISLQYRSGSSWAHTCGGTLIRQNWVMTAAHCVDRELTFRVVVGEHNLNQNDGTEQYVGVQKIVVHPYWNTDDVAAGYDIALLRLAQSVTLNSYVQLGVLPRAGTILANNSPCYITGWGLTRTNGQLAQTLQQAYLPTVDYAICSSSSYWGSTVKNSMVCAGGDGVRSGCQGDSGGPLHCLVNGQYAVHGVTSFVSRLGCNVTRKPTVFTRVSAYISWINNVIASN

Row | Structure (SMILES) | pKap [1] | anti-elastase activity (inhibition) [2] [%] | increase of hyaluronidase enzymatic activity [3] [%] | viability at 24 h, 35.6 µg/mL [4] [%] | cytotoxicity, in words [5] | CMC (mM) Conductivity [6] | CMC (mM) Fluorescence [7] | CMC (mM) Surface Tension [8] | γcmc ([8]; surface tension at the cmc) | antimicrobial activity (MIC), in words [9] | concentration that inhibits biofilm formation [10] [µg/mL] | concentration that inhibits biofilm formation [11] [µg/mL] | preformed biofilm eradicated [12] | preformed biofilm eradicated [13]
1 | CCCCCCCCCCCC(=O)NC(CCCNC(=N)N)C(=O)NCCCCCCNC(=O)C(CCCNC(=N)N)NC(=O)CCCCCCCCCCC (stereo not drawn) [C6(LA)2] | 10.5 | 10.5 | 47.2 | 99.3 | did not cause any apparent cytotoxicity | 0.4 * mM | 0.4 * mM | 0.002 * mM | 30 * mN/m | – | – | – | – | –
2 | CCCCCCCCCCCC(=O)NC(CCCNC(=N)N)C(=O)NCC(O)CNC(=O)C(CCCNC(=N)N)NC(=O)CCCCCCCCCCC (stereo not drawn) [C3(LA)2OH, Bis (N^α-lauroyl arginine) (2-hydroxy-1,3-propane) diamide] | 10.9 | – | – | – | – | 0.6 * mM | 0.6 * mM | – | – | – | – | – | – | –
3 | CCCCCCCC(=O)NC(CCCNC(=N)N)C(=O)NCCCNC(=O)C(CCCNC(=N)N)NC(=O)CCCCCCC (stereo not drawn) [C3(OA)2] | – | – | – | – | – | – | 8 * mM | – | – | lowest antimicrobial efficiency (highest MIC values) | 128 | 128 | less than 30% | less than 30%
